How the values were obtained:
5‐LO = biological target: T1, 5‐LO (Homo sapiens, UniProt P09917); assay: Ex vivo whole blood stimulation with opsonized zymosan, 5‐LO products; format: cell-based; design: endogenous in cells; host or cells: human polymorphonuclear leukocytes isolated from heparinized blood; conditions: 5‐LO product biosynthesis in whole blood, mean (95% confidence interval)
T1 sequence (P09917 1-674): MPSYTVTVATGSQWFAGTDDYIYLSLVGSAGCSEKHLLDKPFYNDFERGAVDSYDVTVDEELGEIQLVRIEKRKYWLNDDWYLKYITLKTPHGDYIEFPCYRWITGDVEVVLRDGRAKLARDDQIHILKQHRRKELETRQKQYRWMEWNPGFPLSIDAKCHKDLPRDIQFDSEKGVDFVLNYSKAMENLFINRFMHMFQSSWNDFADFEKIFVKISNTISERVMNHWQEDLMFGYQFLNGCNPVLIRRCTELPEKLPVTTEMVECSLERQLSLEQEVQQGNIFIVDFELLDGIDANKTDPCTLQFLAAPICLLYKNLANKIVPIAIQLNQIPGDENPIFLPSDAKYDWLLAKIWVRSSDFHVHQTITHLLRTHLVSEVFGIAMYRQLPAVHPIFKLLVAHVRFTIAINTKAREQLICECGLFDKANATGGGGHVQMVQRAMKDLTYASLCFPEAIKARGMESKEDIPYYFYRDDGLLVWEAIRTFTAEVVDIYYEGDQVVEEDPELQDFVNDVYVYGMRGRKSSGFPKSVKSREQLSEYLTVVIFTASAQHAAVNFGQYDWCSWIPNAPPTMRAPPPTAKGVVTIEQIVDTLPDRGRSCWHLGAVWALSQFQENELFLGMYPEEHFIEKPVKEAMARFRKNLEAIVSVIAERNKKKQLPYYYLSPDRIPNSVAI
Procedure: Blood was collected in tubes containing heparin as anticoagulant. Test compounds or their diluent control (DMSO, 0.1%) were added to 1 mL of heparinized blood at the indicated concentrations and incubated for 5 minutes in a water bath at 37°C. Stimulation was initiated with the addition of 125 μL of 40 mg/mL of opsonized zymosan, samples were then gently vortexed and incubated at 37°C for 30 minutes.34 Samples were then centrifuged at 960g for 10 minutes at 4°C, plasma was removed and added to tubes containing 4 volumes of CH3OH:CH3CN (1:1) containing 100 ng/mL of PGB2 as internal standard. Samples were stored overnight at −20°C, and then centrifuged at 3300g for 10 minutes. Samples were then purified on C18 cartridges, were eluted with CH3OH, dried under nitrogen, resuspended in 46% of CH3OH:CH3CN (1:1), and analyzed using RP‐HPLC as described above.

[1] = Stability of inhibitory activity after incubation in whole blood; format: in vitro ADME, human; conditions: 3 μmol/L in whole blood up to 240 minutes before zymosan; LTB4
Procedure: Figure 4 Stability of the test compounds for the inhibition of the biosynthesis of 5‐LO products following incubation in plasma or in whole blood. (A) Test compounds were incubated (30 µmol/L) in human plasma for the indicated times at 37°C. Plasma (50 µL) containing the test compounds was then added to 450 µL of PMNL (10^7 cells/mL) which were then stimulated with 1 μmol/L of thapsigargin for 15 minutes at 37°C. The stimulation was then stopped, samples were processed, and 5‐LO products were measured using RP‐HPLC. (B) Whole blood was incubated in the presence of 3 μmol/L of test compounds or with their diluent (control, DMSO 0.1%) for the indicated times and was then stimulated with opsonized zymosan (4 mg/mL) for 30 minutes at 37°C. Blood was then centrifuged and plasma was collected and added to 1.2 mL of CH3OH:CH3CN (1:1). Samples were processed for analysis using RP‐HPLC for LTB4 quantification. All data are expressed as means ± SEM of at least three independent experiments. *Difference from time = 0, as determined using One‐way ANOVA with Dunnett's multiple comparison test (P < .05)

HepaRG cells = assay: Kinetics of test compound disappearance in HepaRG cell culture (HPLC); format: in vitro ADME, human; conditions: 30 µmol/L, 37°C; mean (95% confidence interval), four experiments
Procedure: Undifferentiated cryopreserved HepaRG cells (BioPredic International) were seeded in 12 or 24 well plates at 1.1 × 10^5 and 0.55 × 10^5 cells per well, respectively. Cells were cultured for 14 days in Williams E‐medium supplemented with 1% penicillin‐streptomycin (10 000 U/mL), 10% fœtal bovine serum (FBS), 50 mg/L hydrocortisone hemisuccinate, 5 mg/L insulin and 2 mmol/L Glutamax, and the medium was renewed every 2‐3 days. After 14 days, the culture medium was replaced by the same formulation as above supplemented with 2% dimethyl sulfoxide (DMSO) to induce differentiation. Cells were considered differentiated and ready for experiments after 14 days of differentiation (28 days after seeding).
Differentiated HepaRG cells, plated in 24 well plates, were washed with hepatocyte suspension medium (Williams E‐medium without phenol red, supplemented with 2 mmol/L Glutamax and […] HEPES) before addition of hepatocyte suspension medium (250 µL/well) containing (30 or 50 µmol/L) of the test compounds or their diluent. Cells were then incubated for 7.5, 15, 30, 60 or 90 minutes at 37°C after which the medium was removed.
In experiments where the test compounds incubated with HepaRG cells were to be measured, the cell layer was washed with 250 µL of hepatocyte suspension medium which was then pooled with the first medium. The mixture was then added to 250 µL of ice cold CH3OH:CH3CN (1:1, vol:vol) containing 10 µmol/L of phenethyl 3,4,5‐trimethoxycinnamate as an internal standard. The resulting solution was frozen at −80°C for 2 hour to precipitate any dissolved proteins, centrifuged at 1800g and the supernatant transferred to vials and stored at −20°C until HPLC analysis.
Figure 5 Kinetics of test compound disappearance in HepaRG cell culture. (A) HepaRG cells were incubated in 250 µL of hepatocyte suspension medium containing 30 µmol/L of test compounds for the indicated times at 37°C. Supernatants were removed and added to 250 µL of ice cold CH3OH:CH3CN (1:1 vol:vol) containing 10 µmol/L of phenethyl 3,4,5‐trimethoxycinnamate as an internal standard. The cell layer was washed with 250 µL of hepatocyte suspension medium and added to the above mixture. Samples were centrifuged at 1900g and the supernatants were collected for HPLC analysis as described in the Methods. Values are means ± SEM. (B) Calculated half‐lives of the test compounds in HepaRG cell cultures. Values are means (95% confidence interval). All data are from four independent experiments TEXT PRINTED IN THE PICTURE: (B) CAPE (2): Half-life (Minutes): 4.70 (4.42 - 5.02) | (B) 7: Half-life (Minutes): 6.42 (5.72 -7.31) | (B) 5: Half-life (Minutes): 3.71 (3.67-3.74) | (B) 8: Half-life (Minutes): 6.48 (6.01-7.04) | (B) 9: Half-life (Minutes): 4.38 (4.23 - 4.55) | (B) 10: Half-life (Minutes): 11.32 (10.21- 12.71)

SMILES | IC50 (5‐LO) [nM] | Stability of inhibitory activity after incubation in whole blood [1] | Half-life in HepaRG cell cultures (HepaRG cells)
COc1cc(/C=C/C(=O)CCc2ccccc2)cc(OC)c1O [compound 10, sinapic acid phenethyl ketone] | 1200 | near complete retention of inhibitory activity | 11.32 (10.21- 12.71) Minutes
O=C(/C=C/c1cc(O)ccc1O)OCCc1ccccc1 [compound 5] | 1000 |  | 3.71 (3.67-3.74) Minutes
O=C(/C=C/c1ccc(O)c(O)c1)CCCc1ccccc1 [compound 7] | 2300 | complete loss of inhibitory activity after 240 minutes | 6.42 (5.72 -7.31) Minutes
O=C(/C=C/c1cc(O)ccc1O)CCc1ccccc1 [compound 8] | 1150 |  | 6.48 (6.01-7.04) Minutes
O=C(/C=C/c1ccc(O)c(O)c1)OCCc1ccccc1 [CAPE (2), caffeic acid phenethyl ester, reference compound] | 3580 | complete loss of inhibitory activity after 240 minutes | 4.70 (4.42 - 5.02) Minutes

Reference: article PMC6743424, “Phenolic acid phenethylesters and their corresponding ketones: Inhibition of 5‐lipoxygenase and stability in human blood and HepaRG cells” (Pharmacology Research & Perspectives, 2019)
